The conditions of data set [1]: pH 7.0; cited from earlier work.
For data set [2] the following is noted: cited from earlier work.
Data set [3] concerns Langendorff perfused rat hearts. Conditions: cited from earlier work.
For data set [4], the system named is Langendorff perfused rat heart. Put plainly: Reversibility of esmolol: treatment for 10 minutes then washout without ischaemia. As for the experimental part: All the following experiments performed in a Langendorff perfused rat heart.
The first study is to determine the reversibility of esmolol at different concentrations after treatment with esmolol for 10 minutes then washout without ischaemia and LVDP was measured 9 minutes after starting the treatment and 3 minutes and 15 minutes after washing out the drug. The following doses were studied 0.03, 0.1, 0.3, 1, 3 mM. (n=5 each group)
It is therefore decided that esmolol concentration between 0.3 and 1 mM offers reasonable arresting effect with good reversibility profile.

The subject of a further data set is heart. Put plainly: Arrest by esmolol on its own (applicant's finding). Conditions: esmolol 0.75 mmol/L on its own.

Molecules are shown by their SMILES. Like-named read-outs stand apart in the source and are kept apart here.

For the compound `CC(C)NCC(O)COc1cccc2ccccc12` (stereo not drawn) [propranolol], the “partition coefficient (octanol/water)” value in data set [1] is reported as 17.0.

`Nc1ncnc2c1ncn2[C@@H]1O[C@H](CO)[C@@H](O)[C@H]1O` [Adenosine, (2R,3R,4S,5R)-2-(6-amino-9H-purin-9-yl)-5-(hydroxymethyl)oxolane-3,4-diol]: in data set [2], the solubility in alcohol entry is given as “practically insoluble” and the solubility in water entry is listed as “soluble”.

In the case of `COC(=O)CCc1ccc(OCC(O)CNC(C)C)cc1.Cl` (racemic) [Esmolol, (±)-Methyl p-[2-hydroxy-3-(isopropylamino)propoxy] hydrocinnamate hydrochloride], in data set [3] (esmolol 0.75 mmol/L), the reversibility of arrest entry is “easily reversible”. Also, the reversibility of arrest entry in data set [3] (esmolol 1.5 mmol/L) was “slowly reversible with poor recovery”. In addition, the “esmolol concentration that can cause cardiac arrest” value in data set [3] (in-vitro studies) is “higher than 1 mmol/L”. In data set [4] (0.3 mM compared with 1 mM esmolol), the “reversibility (LVDP recovery) profile after washout” value is “better reversibility (LVDP recovery) profile”. In data set [4] (esmolol alone, doses 0.03, 0.1, 0.3, 1, 3 mM), the “esmolol concentration required to induce arrest” value is given as 1 mM. In data set [2], the solubility in alcohol result is “freely soluble” and the solubility in water result is reported as “very soluble”. The “partition coefficient (octanol/water)” value in data set [1] was 0.42. Besides, the “induction of effective arrest” value with heart is “not sufficient to induce effective arrest”.

The values are drawn from patent US10420786B2, “Compositions for use in cardioplegia comprising esmolol and adenosine” (AOP ORPHAN IP AG, priority 2009, dated 2019).
